From US6355799B1, “Substituted benzene compounds, process for their preparation, and herbicidal and defoliant compositions containing them” (ISK Americas Incorporated, priority 1997, dated 2002) come the findings set out here.

Assay type in all cases: in vivo
For data set [1], the system named is johnsongrass (Sorghum halepense, SORHA). Briefly: Post-emerge test, greenhouse herbicide activity screening. The conditions noted are these: post-emerge; for Post-emerge Herbicidal Activity SORHA: phytotoxicity rating 0-100 at 14 days after application; for Post-emerge Herbicidal Activity SORHA (phytotoxicity rating): 14 days after application, rating scale 0-100. An outline of the steps:
(§1)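 Applied at 15–1000 g ai/ha from acetone in 187 l/ha spray volume. Post-emergence applications included 0.25% v/v non-ionic surfactant and reached plants sown 8–21 days before. Pre-emergence applications were incorporated by surface watering. Efficacy or crop damage was rated on a 0–100 scale after 14 days.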

The test system of data set [2] is velvetleaf (Abutilon theophrasti, ABUTH). Described as above. The conditions noted are these: post-emerge; for Post-emerge Herbicidal Activity ABUTH: phytotoxicity rating 0-100 at 14 days after application; for Post-emerge Herbicidal Activity ABUTH (phytotoxicity rating): 14 days after application, rating scale 0-100. An outline of the steps:
as §1

Data set [3] deals with sicklepod (Cassia obtusifolia, CASOB). The data set is described as above. As to conditions: post-emerge; for Post-emerge Herbicidal Activity CASOB: phytotoxicity rating 0-100 at 14 days after application; for Post-emerge Herbicidal Activity CASOB (phytotoxicity rating): 14 days after application, rating scale 0-100. An outline of the steps:
as §1

Data set [4] concerns lambsquarters (Chenopodium album, CHEAL). The data set is described as above. As to conditions: post-emerge; for Post-emerge Herbicidal Activity CHEAL: phytotoxicity rating 0-100 at 14 days after application; for Post-emerge Herbicidal Activity CHEAL (phytotoxicity rating): 14 days after application, rating scale 0-100. An outline of the steps: as §1
The subject of data set [5] is large crabgrass (Digitaria sanguinalis, DIGSA). The data set is described as above. The conditions noted are these: post-emerge; for Post-emerge Herbicidal Activity DIGSA: phytotoxicity rating 0-100 at 14 days after application; for Post-emerge Herbicidal Activity DIGSA (phytotoxicity rating): 14 days after application, rating scale 0-100. In short, it runs like this: as §1

Data set [6] concerns green foxtail (Setaria viridis, SETVI). The data set is described as above. The conditions noted are these: post-emerge; for Post-emerge Herbicidal Activity SETVI: phytotoxicity rating 0-100 at 14 days after application; for Post-emerge Herbicidal Activity SETVI (phytotoxicity rating): 14 days after application, rating scale 0-100. An outline of the steps:
as §1

Data set [7] concerns barnyardgrass (Echinochloa crus-galli, ECHCG). Described as above. The conditions noted are these: post-emerge; for Post-emerge Herbicidal Activity ECHCG: phytotoxicity rating 0-100 at 14 days after application; for Post-emerge Herbicidal Activity ECHCG (phytotoxicity rating): 14 days after application, rating scale 0-100. An outline of the steps: as §1
Data set [8] relates to redroot pigweed (Amaranthus retroflexus, AMARE). The data set is described as above. As to conditions: post-emerge; for Post-emerge Herbicidal Activity AMARE: phytotoxicity rating 0-100 at 14 days after application; for Post-emerge Herbicidal Activity AMARE (phytotoxicity rating): 14 days after application. An outline of the steps: as §1
Data set [9] relates to ivyleaf morningglory (Ipomoea hederacea, IPOHE). Described as above. As to conditions: post-emerge; for Post-emerge Herbicidal Activity IPOHE: phytotoxicity rating 0-100 at 14 days after application; for Post-emerge Herbicidal Activity IPOHE (phytotoxicity rating): 14 days after application, rating scale 0-100. In short, it runs like this: as §1
Data set [10] has as its system field corn (Zea mays L., var. Dekalb 535, CORN). Nature of the data set: Post-emerge test, crop safety. As to conditions: post-emerge; for Post-emerge Herbicidal Activity CORN: crop damage rating 0-100 at 14 days after application; for Post-emerge Herbicidal Activity CORN (crop damage rating): 14 days after application, rating scale 0-100. In short, it runs like this:
(§2)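 Compounds in acetone were track-sprayed at 15-1000 g ai/ha (187 l/ha) on sandy loam pots: pre-emerge one day after seeding, post-emerge at 2-3 leaf stage with 0.25% v/v non-ionic surfactant. Phytotoxicity was rated 14 days later on a 0 (no damage) to 100 (complete death) scale.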

Data set [11] concerns upland rice (Oryza sp., var. Tebonnet, RICE). Nature of the data set: Post-emerge test, crop safety. The conditions noted are these: post-emerge; for Post-emerge Herbicidal Activity RICE: crop damage rating 0-100 at 14 days after application; for Post-emerge Herbicidal Activity RICE (crop damage rating): 14 days after application, rating scale 0-100. In short, it runs like this:
as §2

On to `COc1c(Cl)cc(F)c(-n2c(=O)n3n(c2=O)CCCC3)c1NC(=O)c1ccc2ccccc2c1` [9-15], for which the “Post-emerge Herbicidal Activity SORHA” value is given as 0 in data set [1] (63 g ai/ha) and 10 in [1] (250 g ai/ha). The “Post-emerge Herbicidal Activity ABUTH” value in data set [2] (63 g ai/ha) and in [2] (250 g ai/ha) was 100 each time. In addition, the “Post-emerge Herbicidal Activity CASOB” value in data set [3] (63 g ai/ha) and in [3] (250 g ai/ha) was 100 throughout. Also, the “Post-emerge Herbicidal Activity CHEAL” value in data set [4] (63 g ai/ha) and in data set [4] (250 g ai/ha) was 100 in each case. Further, the “Post-emerge Herbicidal Activity DIGSA” value in data set [5] (63 g ai/ha) was 0; in [5] (250 g ai/ha), 20. Moreover, the “Post-emerge Herbicidal Activity SETVI” value in data set [6] (63 g ai/ha) was found to be 10; in data set [6] (250 g ai/ha) it was 35. For the same molecule, the figures for the “Post-emerge Herbicidal Activity ECHCG” value in data set [7] (63 g ai/ha) and in data set [7] (250 g ai/ha) were 0 and 10, respectively. In addition, the “Post-emerge Herbicidal Activity AMARE” value in [8] (63 g ai/ha) and in data set [8] (250 g ai/ha) was 100 in each case. In addition, the “Post-emerge Herbicidal Activity IPOHE” value in data set [9] (63 g ai/ha) and in [9] (250 g ai/ha) was 100 in each case. Further, the entries for the “Post-emerge Herbicidal Activity CORN” value in data set [10] (63 g ai/ha) and in data set [10] (250 g ai/ha) were 5 and 10, respectively. Further, the figures for the “Post-emerge Herbicidal Activity RICE” value in [11] (63 g ai/ha) and in [11] (250 g ai/ha) were 40 and 70, respectively.

Consider `Cn1c(C(F)(F)F)cc(=O)n(-c2c(O)cc(Cl)cc2Cl)c1=O` [16-1], for which the “Post-emerge Herbicidal Activity SORHA (phytotoxicity rating)” value is 20 in data set [1] (63 g ai/ha) and 40 in data set [1] (250 g ai/ha). In addition, the “Post-emerge Herbicidal Activity ABUTH (phytotoxicity rating)” value in data set [2] (63 g ai/ha) came to 70; in data set [2] (250 g ai/ha) it was 100. Also, the “Post-emerge Herbicidal Activity CASOB (phytotoxicity rating)” value in [3] (63 g ai/ha) and in [3] (250 g ai/ha) was 0 each time. The “Post-emerge Herbicidal Activity CHEAL (phytotoxicity rating)” value in data set [4] (63 g ai/ha) came out at 0; in data set [4] (250 g ai/ha), 70. The “Post-emerge Herbicidal Activity DIGSA (phytotoxicity rating)” value was determined as 20 in data set [5] (63 g ai/ha) and 80 in [5] (250 g ai/ha). Moreover, the “Post-emerge Herbicidal Activity SETVI (phytotoxicity rating)” value in data set [6] (63 g ai/ha) and in [6] (250 g ai/ha) was 0 in each case. Also, the “Post-emerge Herbicidal Activity ECHCG (phytotoxicity rating)” value in data set [7] (63 g ai/ha) and in data set [7] (250 g ai/ha) was 0 throughout. Also, the “Post-emerge Herbicidal Activity AMARE (phytotoxicity rating)” value in data set [8] (63 g ai/ha, rating scale 0-100 (0 no damage, 100 complete death)) is recorded as 70; in data set [8] (250 g ai/ha, rating scale 0-100), 70. In addition, the “Post-emerge Herbicidal Activity IPOHE (phytotoxicity rating)” value in data set [9] (63 g ai/ha) was found to be 30; in data set [9] (250 g ai/ha) it was 70. Moreover, the “Post-emerge Herbicidal Activity CORN (crop damage rating)” value in [10] (63 g ai/ha) and in [10] (250 g ai/ha) was 0 throughout. Also, the “Post-emerge Herbicidal Activity RICE (crop damage rating)” value in [11] (63 g ai/ha) turned out to be 0; in data set [11] (250 g ai/ha), 10.
